Earlier results as cited in publication PMC8466300, “Investigating the Central Nervous System Disposition of Actinomycin D: Implementation and Evaluation of Cerebral Microdialysis and Brain Tissue Measurements Supported by UPLC-MS/MS Quantification” (Pharmaceutics, 2021).
*1 amine or outer side, *2 acyl side, *3 side chain or, on linkers, in order; H or OH if unused. Where a SMILES comes first, the peptide text is derived from it. Bridges are numbered along the chain shown (N, C = ends). Roman numbers before positions name the chains, in order. [ ]: non-standard residue; d: D form. Actinocin(9to1) = Cc1c2oc3c(C)ccc(C(=O)[*:1])c3nc-2c(C(=O)[*:2])c(N)c1=O; NMeV = CN[C@H](C(=O)O)C(C)C; Sar = CNCC(=O)O

Conditions: two patients, three hours after intravenous administration; cited from earlier work
Excerpt: However, in this earlier study, actinomycin D was quantified in cerebrospinal fluid three hours after intravenous administration, i.e., in a protein-poor compartment that is also separated from blood and tissue by active barriers. […] In a more recent study in m ...

## Cc1c2oc3c(C)ccc(C(=O)N[C@@H]4C(=O)N[C@H](C(C)C)C(=O)N5CCC[C@H]5C(=O)N(C)CC(=O)N(C)[C@@H](C(C)C)C(=O)O[C@@H]4C)c3nc-2c(C(=O)N[C@@H]2C(=O)N[C@H](C(C)C)C(=O)N3CCC[C@H]3C(=O)N(C)CC(=O)N(C)[C@@H](C(C)C)C(=O)O[C@@H]2C)c(N)c1=O [actinomycin D, Actinomycin D] (I: T[dV]P[Sar][NMeV] / II: T[dV]P[Sar][NMeV]; ester I:1-I:C, II:1-II:C; linker I:N-II:N via Actinocin(9to1))
  cerebrospinal fluid concentration relative to corresponding plasma concentration: approximately 10%
